In assay [1] the test system is PKD1. The arrangement: method as in PMID 18829454, PMID 22267986, PMID 21617763, PMID 20444281, PMID 21998636. The settings on record: cited from earlier work; for IC50: previous HTS assays; for inhibition of PKD1 in vitro: previous work.
The subject of assay [2] is PKD1 in LNCaP prostate cancer cells. The arrangement: method as in PMID 18829454, PMID 22267986, PMID 21617763, PMID 20444281, PMID 21998636. The following applies: cited from earlier work.
The target of assay [3] is T1, recombinant GST-tagged human protein kinase D1 (PKD1) (Homo sapiens, UniProt Q15139).
T1 construct: purchased Enzo Life sciences (Farmingdale, NY)
T1 sequence (Q15139 1-912): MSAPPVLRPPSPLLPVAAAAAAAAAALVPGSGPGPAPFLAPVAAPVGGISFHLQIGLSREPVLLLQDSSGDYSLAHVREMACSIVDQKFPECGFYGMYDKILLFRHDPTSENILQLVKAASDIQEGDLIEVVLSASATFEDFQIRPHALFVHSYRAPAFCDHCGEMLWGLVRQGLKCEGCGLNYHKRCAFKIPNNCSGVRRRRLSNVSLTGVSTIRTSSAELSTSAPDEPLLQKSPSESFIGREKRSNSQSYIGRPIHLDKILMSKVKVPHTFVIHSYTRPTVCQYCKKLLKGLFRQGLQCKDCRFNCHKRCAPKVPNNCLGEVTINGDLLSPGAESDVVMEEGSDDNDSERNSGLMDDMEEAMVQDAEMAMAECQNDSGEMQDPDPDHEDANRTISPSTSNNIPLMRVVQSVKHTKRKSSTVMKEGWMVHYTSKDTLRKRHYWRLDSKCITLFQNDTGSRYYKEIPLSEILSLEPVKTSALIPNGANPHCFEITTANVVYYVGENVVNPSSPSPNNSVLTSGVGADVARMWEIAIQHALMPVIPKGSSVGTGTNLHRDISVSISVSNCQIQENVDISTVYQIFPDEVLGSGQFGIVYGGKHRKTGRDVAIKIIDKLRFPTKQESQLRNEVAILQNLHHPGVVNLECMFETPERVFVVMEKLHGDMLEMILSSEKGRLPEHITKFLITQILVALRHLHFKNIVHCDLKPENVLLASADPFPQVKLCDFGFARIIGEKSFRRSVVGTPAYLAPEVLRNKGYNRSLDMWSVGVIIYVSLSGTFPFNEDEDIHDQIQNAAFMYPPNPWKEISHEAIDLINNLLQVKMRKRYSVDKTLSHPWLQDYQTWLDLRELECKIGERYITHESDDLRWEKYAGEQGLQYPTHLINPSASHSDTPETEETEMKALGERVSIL
As to the kind of experiment: In vitro radiometric PKD1 kinase assay. The following applies: for inhibition at 1 µM: read-out: Inhibition of PKD1. Format: biochemical. As for the experimental part: All compounds were given distinct UPCMLD (University of Pittsburgh Center for Chemical Methodologies and Library Development) IDs and were then assigned numerical IDs for convenient data display. Evaluation of each compound was carried out in triplicate at a single concentration (1 µM). Our previously described PKD1 inhibitor, kb-NB142-70, and DMSO (solvent alone) were used as positive and negative controls, respectively. Percent residual kinase activity was calculated based on that of the negative control (DMSO).
Kinase active recombinant GST-tagged human protein kinase D1 (PKD1) was obtained from Enzo Life sciences (Farmingdale, NY). DMSO was purchased from Sigma. Recombinant PKCα, PKCδ and CAMKIIα were obtained from SignalChem (Richmond, BC, Canada). ATP was purchased from Fisher Scientific. HDAC5 substrate peptide was synthesized by Biobasic Canada Inc. (Markham, ON). Myelin basic protein 4–14 was purchased from AnaSpec Inc. (Fremont, CA). The targeted kinase inhibitor library was obtained from Hoffmann-La Roche, Inc.
1.2 µg of HDAC-5 was used as substrate in the reaction. Phosphorylation of HDAC5 was detected in a kinase reaction having 1 µCi [γ-^32P] […] The reaction was incubated at 30° for 10 minutes and 25 µL of the reaction was spotted on Whatman P81 filter paper. The filter paper was washed 3 times in 0.5% phosphoric acid, air dried and counted using Beckman LS6500 multipurpose scintillation counter. Percent PKD1 inhibition was graphed using GraphPad Prism software 5.0.

The next assay has as its target PKCδ (Homo sapiens, UniProt Q05655). As to the kind of experiment: In vitro radiometric PKC kinase assay. Format: biochemical. The arrangement: purchased SignalChem (Richmond, BC, Canada). The settings on record: read-out: inhibition of PKCδ. How it is done: In this study, we counter-screened the twenty-eight PKD1 inhibitory agents for inhibition of PKCα, PKCδ and CAMKIIα in order to get an initial profile for the potential PKD selectivity, since these are the functionally most closely related kinases. The compounds were examined at 0.1, 1 and 10 µM concentration. […] Next, the inhibitory activity for CAMKIIα was examined.
The PKC kinase assay was carried out by co-incubating 1 µCi [γ-^32P]ATP, 20 µM ATP, 50 ng of purified PKCα or PKCδ and 5 µg of myelin basic protein 4–14, 0.25 mg/mL bovine serum albumin, 0.1 mg/mL phosphatidylcholine/phosphatidylserine (80/20%) (1 µM), 1 µM phorbol dibutyrate in 50 µL of kinase buffer containing 50 mM Tris-HCl, pH 7.5, 4 mM MgCl2 and 10 mM β-mercaptoethanol. For the CAMK assay, 50 ng of CAMK and 2 µg Syntide-2 substrate in 50 µL kinase buffer were incubated with 0.1 mM MgCl2, 1 µCi of [γ-^32P] ATP, 70 µM ATP. 0.5 mM CaCl2 and 30 ng/µL calmodulin were preincubated for 15 min on ice and then added in the kinase reaction. The reactions were incubated at 30°C for 10 minutes and 25 µL of the reaction was spotted on Whatman P81 filter paper. The filter paper was washed 3 times in 0.5% phosphoric acid, air dried and counted using Beckman LS6500 multipurpose scintillation counter.

Assay [4] deals with T2, endogenous PKD1 in LNCaP prostate cancer cells (Homo sapiens, UniProt Q15139).
T2 construct: endogenous in cells; host or cells: LNCaP prostate cancer cells
T2 sequence (Q15139 1-912): T1 sequence (Q15139 1-912)
As to the kind of experiment: PMA-induced activation of PKD1 in LNCaP cells (immunoblot pS916 / pS744/748). Format: cell-based. The following applies: PMA 10 nM. As for the experimental part:
(§1) PMA induces PKC-dependent phosphorylation of Ser744/748 (S^744/748) in the activation loop followed by autophosphorylation of PKD1 on Ser916 (S^916) in the C-terminus, [31]. The catalytic activity of PKD1 correlates well with the level of phosphorylation at S^916 [31].
(§2) Figure 5 In vitro IC50, cellular activity, and mode of action of representative compounds. […] IC50 values were calculated based on the dose-response curve. Data are represented as mean ± SEM of 3 independent experiments. […] Cell lysates were subjected to immunoblotting for pS^916-PKD1 and pS^744/748-PKD1. Tubulin was blotted as loading control. The experiments were repeated three times and representative blots are shown. C.
For orientation: A western blot detects proteins with antibodies after separation by electrophoresis.

In assay [5] the target is T3, PKD1 (Homo sapiens, UniProt Q15139).
T3 construct: purchased Enzo Life sciences (Farmingdale, NY)
Briefly: Kinetic analysis, Lineweaver-Burk plots (ATP competition). Format: biochemical. As for the experimental part:
as §1, §2

The mark [6] stands for this setting: 1 µM, triplicate determinations.

Read-outs that look alike come from different tables or passages of the source.

Chain of PKCδ (Q05655 whole entry): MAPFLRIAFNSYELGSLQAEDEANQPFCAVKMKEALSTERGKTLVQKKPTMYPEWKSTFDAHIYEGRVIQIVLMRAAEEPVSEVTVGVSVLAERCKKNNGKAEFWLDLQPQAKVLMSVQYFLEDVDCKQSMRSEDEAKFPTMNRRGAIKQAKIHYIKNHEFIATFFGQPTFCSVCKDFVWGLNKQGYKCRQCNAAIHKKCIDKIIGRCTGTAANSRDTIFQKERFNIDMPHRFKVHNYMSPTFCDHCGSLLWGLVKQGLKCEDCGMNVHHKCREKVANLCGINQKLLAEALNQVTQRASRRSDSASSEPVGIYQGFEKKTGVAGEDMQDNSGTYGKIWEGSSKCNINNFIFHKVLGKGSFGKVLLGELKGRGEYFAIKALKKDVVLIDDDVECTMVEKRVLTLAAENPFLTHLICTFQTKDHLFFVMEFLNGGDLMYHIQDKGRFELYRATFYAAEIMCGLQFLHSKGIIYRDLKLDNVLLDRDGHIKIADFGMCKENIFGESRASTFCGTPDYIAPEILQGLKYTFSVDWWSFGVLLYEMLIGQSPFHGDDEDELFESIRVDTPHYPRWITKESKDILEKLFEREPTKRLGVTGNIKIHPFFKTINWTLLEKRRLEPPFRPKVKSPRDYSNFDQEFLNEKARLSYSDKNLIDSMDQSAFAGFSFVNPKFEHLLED

Broadly, the IC50 is the concentration that inhibits the measured activity by half. `O=C1NCCCc2c1oc1ccc(O)cc21` [CID755673]: in the assay with PKD1 [1], the IC50 is 182 nM and the “inhibition of PKD1 in vitro” value is “low nanomolar range”. The “suppression of PKD1 autophosphorylation at Ser916” value in assay [2] was “low micromolar range”.
On to `CCN1/C(=C/C(C)=O)Sc2ccc(OC)cc21` [CID1893668], for which, in the assay on PKD1 [1], the IC50 is 1700 nM. Moreover, the “inhibition of phorbol ester-induced endogenous PKD1 activation” value in assay [2] is on record as “in a concentration-dependent manner”.
Take `O=C(Nc1ccc(CN2CCOCC2)cc1)c1ccc(-c2cccc(Cl)c2)o1` [CID2011756]: the IC50 with PKD1 [1] was 3200 nM. In addition, the “inhibition of phorbol ester-induced endogenous PKD1 activation” value in assay [2] is “in a concentration-dependent manner”.
With `Cc1cc(NCCCN)nc(-c2ccccc2O)n1` [CID5389142], the IC50 with PKD1 [1] was 1500 nM. For the same compound, in assay [2], the “inhibition of phorbol ester-induced endogenous PKD1 activation” value is reported as “in a concentration-dependent manner”.
A word on the inhibition: it is the percentage by which the read-out fell short of the control. For `O=C1Nc2ccc(F)cc2/C1=C/c1ccc[nH]1` [Compound 4], the inhibition at 1 µM in assay [3] (setting [6]) was determined as 57%.
Same read-out and setting: next, `COc1cc[nH]c1/C=C1\C(=O)Nc2ccccc21` [Compound 5]: 55%.
Turning to `CNCC#Cc1c(F)ccc2c1/C(=C/c1[nH]ccc1OC)C(=O)N2` [Compound 11], the inhibition at 1 µM in assay [3] was 94%.
Regarding `COc1cc[nH]c1/C=C1\C(=O)Nc2ccc(F)c(C#CC3(O)CCOCC3)c21` [Compound 13], the inhibition at 1 µM in assay [3] (setting [6]) came to 80%.
The same measure, in the same setting: under `CN[C@H](C#Cc1c(F)ccc2c1/C(=C/c1[nH]ccc1OC)C(=O)N2)CO` [Compound 16] stands 95%; under `COc1cc[nH]c1C=C1C(=O)Nc2ccc(F)c(C#CC(O)C(N)C(C)O)c21` (stereo not drawn) [Compound 17], 97%.
Still for that read-out and setting: next, `Cn1cc(C2=C(c3cccc4ccccc34)C(=O)NC2=O)c2ccccc21` [Compound 25]: 54%.
Still for that read-out and setting: under `CSc1c(C2=C(c3cn(C)c4ccccc34)C(=O)NC2=O)c2ccccc2n1C` [Compound 30] stands 65%.
As for `Cn1cc(C2=C(c3cn(CCCO)c4ccccc34)C(=O)NC2=O)c2ccccc21` [Compound 34], in assay [3] (setting [6]), the inhibition at 1 µM was found to be 65%.
For the compound `COc1ccc(O)c(C(=O)c2ccc(C(=O)O[C@@H]3CCCNC[C@H]3NC(=O)c3ccncc3)cc2)c1F` [Compound 100], the inhibition at 1 µM in assay [3] came to 77%.
Take `O=C1Nc2ccc(F)c3c(OCCO)cc(-c4ccc[nH]4)c1c23` [Compound 101]: the inhibition at 1 µM in assay [3] was 86%. In addition, the inhibition at 10 µM on PKCδ is around 50%.
On to `COc1cc[nH]c1/C=C1\C(=O)Nc2ccc([N+](=O)[O-])c(N3CC[C@@H](O)C3)c21` [Compound 102], for which the inhibition at 1 µM in assay [3] (setting [6]) was determined as 93%.
As to `COc1cccc(C(=O)c2sc(Nc3ccc(N4CCN(C(C)C)CC4)cc3)nc2N)c1` [Compound 104], in assay [3], the inhibition at 1 µM stood at 65%. On PKCδ, the inhibition at 10 µM was around 50%.
In the case of `Fc1ccc(-c2c(-c3ccncc3)[nH]c3cccnc23)cc1` [Compound 116], in assay [3], the inhibition at 1 µM came to 86%. In addition, the inhibition at 10 µM on PKCδ was around 70%.
Take `Cn1c(-c2ccncc2)c(-c2ccc(F)cc2)c2ncccc21` [Compound 121]: the inhibition at 1 µM in assay [3] came to 55%.
For the compound `OCCn1c(-c2ccncc2)c(-c2ccc(F)cc2)c2ncccc21` [Compound 123], the inhibition at 1 µM in assay [3] (setting [6]) was 58%.
On to `Cc1cc(C)c2c(n1)sc1c(N)ncnc12` [Compound 172], for which the inhibition at 1 µM in assay [3] (setting [6]) was found to be 62%. For the same compound, the inhibition at 10 µM on PKCδ (10 µM) was around 50%.
On to `COc1ccc(O)c(C(=O)c2ccc(C(=O)N[C@@H]3CCCNC[C@H]3NC(=O)c3ccncc3)cc2)c1F` [Compound 175], for which the inhibition at 1 µM in assay [3] is 78%.
With `O=C1N=C(NCc2ccccc2)S/C1=C\c1ccc2ncccc2c1` [Compound 178], in assay [3] (setting [6]), the inhibition at 1 µM worked out at 55%. For the same compound, the inhibition at 10 µM on PKCδ (10 µM) is around 50%.
Take `O=C1N=C(N[C@H](CO)Cc2ccccc2)S/C1=C\c1ccc2ncccc2c1` [Compound 190]: in assay [3] (setting [6]), the inhibition at 1 µM came out at 49%. Besides, the inhibition at 10 µM at PKCδ (10 µM) was around 70%.
Take `O=C1N=C(N[C@H](CO)c2ccccc2)S/C1=C\c1ccc2ncccc2c1` [Compound 203]: in assay [3] (setting [6]), the inhibition at 1 µM was determined as 85%.
The same measure, in the same setting: next, `NC1=NC(=O)/C(=C/c2ccc3ncccc3c2)S1` [Compound 205]: 82%.
On to `CNC1=NC(=O)/C(=C/c2ccc3ncccc3c2)S1` [Compound 209], for which the inhibition at 1 µM in assay [3] (setting [6]) turned out to be 64%. The IC50 in assay [3] (dose-response, mean ± SEM of 3 independent experiments) came to 562 nM; in assay [4] (densitometry of pS916-PKD1 levels, read-out: cellular IC50 for inhibition of PKD1), 18200 nM. In assay [4], the “effect on PKC-induced transphosphorylation at S744/748” value is “did not affect”. At PKD1 [5], the “mode of inhibition with respect to ATP” value is listed as “competitive with respect to ATP”.
Turning to `O=C1NCCSc2c1sc1ccc(O)cc21` [kb-NB142-70], in the assay on PKD1 [1], the IC50 was 28.3 nM and the “inhibition of PKD1 in vitro” value is on record as “low nanomolar range”. The “suppression of PKD1 autophosphorylation at Ser916” value in assay [2] is “low micromolar range”.

The values are drawn from article PMC3445516 (PLoS ONE, 2012).
